Data on 19 compounds can be found in patent US9802990B2, “Functional peptides for obesity disorders” (DANONE, S.A., priority 2013, dated 2017).

Data set [1] deals with C. elegans wild type strain N2. Put plainly: C. elegans body fat reduction, Nile Red staining. The data set is classed as in vivo, Caenorhabditis elegans. The note with it: for % Fluorescence Reduction: nematodes fed NG with peptides alone or in Savia soy fermented product, alone or mixed, 1 μg/mL final concentration, Nile Red; for % Fluorescence Reduction C. elegans: synthesized peptides at 1 μg/mL of final concentration. The procedure:
The ability to reduce body fat content in the nematode C. elegans was analyzed in a group of 5 peptide extracts previously obtained from glycinin (see Table 4). These samples were selected by their high effect on PL and PLA2 in vitro inhibition. Specifically, 5 peptide extracts were selected from the PLA2 inhibition assay (M20G, M5G, M31G, M27G and M29G). Body fat content was analyzed in the C. elegans wild type strain N2 by Red Nile dying of living nematodes. Experiments were carried out with age-synchronized populations, starting from egg-stage to young adult stage (3-day adults). During the experiments, worms were cultured in the NGM agar plates as control condition, NGM with the corresponding peptide extracts (100 μL/plate) and NGM with 6 μg/mL of Orlistat as positive control. Nile Red was added on top of the NG plates already seeded with Escherichia coli OP50 strain to a final concentration of 0.05 μg/ml. After incubation at 20° C., young adult worms (60 worms per condition) were taken to measure the in vivo fluorescence in a VersaFluor™ Fluorometer System. Fluorescence obtained in treated worms was calculated from fluorescence of worms fed in control conditions (reference sample). Experiments were carried out by duplicate.
From these purified fractions, a total of 11 peptides were selected to be synthesized and evaluated in vivo in the obesity model of C. elegans (Table 9). All peptides were evaluated at 1 μg/mL of final concentration.
We selected 5 peptides obtained from hydrolysis of glycinin with strain 6 (P8a, P6a, P14c, P16f, P14b) The peptides from glycinin were added to a soy fermented product (Savia® from Danone) both alone or mixed at final concentration of 1 μg/mL. Nematodes were fed with these products and then total lipids were quantified by Nile Red staining.

Data set [2] deals with PLA2 (pancreatic phospholipase A2) (Homo sapiens, UniProt P04054). Description: PLA2 inhibition assay by HPLC with DOPC as substrate. It is filed as biochemical. The procedure:
Inhibition of PLA2 enzyme was determined by High Performance Liquid Chromatography (HPLC) using 1,2-dioleoyl-sn-glycero-3-phosphocholine (DOPC) as substrate as described by Singh et al. (A rapid isocratic high-performance liquid chromatography method for determination of cholesterol and 1,2-dioleoyl-sn-glycero-3-phosphocholine. Journal of Chromatography (2005); 1073:347-353). Waters 2695 HPLC with Waters 2996 Photodiode detector Array and a C8 column Hypersil BDS (250×4.6 mm, […]) were used carrying out an eluent isocratic method formed by a mixture of ammonium phosphate buffer 50 mM pH 2.7:methanol (15:85, v/v).

A further data set deals with T1, PL (pancreatic lipase) (Sus scrofa, UniProt P00591).
T1 sequence (P00591 1-450): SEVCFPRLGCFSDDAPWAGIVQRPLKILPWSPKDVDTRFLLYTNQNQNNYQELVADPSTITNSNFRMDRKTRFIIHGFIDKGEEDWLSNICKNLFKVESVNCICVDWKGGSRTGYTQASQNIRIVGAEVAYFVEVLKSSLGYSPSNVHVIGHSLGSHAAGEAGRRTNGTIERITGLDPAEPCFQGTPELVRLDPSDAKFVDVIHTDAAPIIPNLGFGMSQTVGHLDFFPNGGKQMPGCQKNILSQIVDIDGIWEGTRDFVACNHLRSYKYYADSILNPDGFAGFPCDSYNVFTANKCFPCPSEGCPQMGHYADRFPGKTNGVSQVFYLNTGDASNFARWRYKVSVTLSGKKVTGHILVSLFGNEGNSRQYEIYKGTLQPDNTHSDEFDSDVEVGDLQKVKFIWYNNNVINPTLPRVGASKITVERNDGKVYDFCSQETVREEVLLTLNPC
Put plainly: PL inhibition assay with 4-methyl umbelliferyl oleate (4MUO), fluorescence. It is filed as biochemical. The note with it: synthesized peptides. The procedure:
Inhibition of PL was determined using 4-methyl umbelliferyl oleate (4MUO) as substrate as described by Sugiyama et al. (Oligomeric procyanidins in apple polyphenol are main active components for inhibition of pancreatic lipase and triglyceride absorption. J Agric Food Chem (2007); 55: 4604-4609) with some modifications. Aliquots of 25 μl of each peptide extract were incubated with 25 μl of PL solution (1 mg/ml) and preincubated for 10 minutes at 26° C. with stirring of 500 rpm. Reaction was initiated by adding 50 μl of 4MUO (0.1 mM) dissolved in Dulbecco's buffer. After incubation at 26° C. for 20 minutes with constant stirring (500 rpm) the reaction was stopped by adding 100 μl of 0.1 M sodium citrate buffer (pH 4.2). The amount of 4-methyl umbelliferone released by the enzyme was determined by fluorescence. Peptide extracts were used as inhibitors in the enzymatic assay but had to be diluted 1/20 or 1/50 because of the interference between the fluorescence and the buffer containing the peptides.

A short description of data set [3]: In vitro enzymatic digestion model of the digestive tract (pepsin, pancreatin, bile), HPLC. It is filed as in vitro ADME. The note with it: for degradation in the in vitro digestion model (in words): HPLC, completely degraded = at the beginning of the intestinal phase, resistant ones finally degraded at the end; for metabolised at 0.25 h: Intestinal phase 15 min.; for metabolised at 1 h: Intestinal phase 60 min. From the text: An in vitro enzymatic digestion model of an in vivo digestive tract was developed for mimicking the physiological conditions to check and certify that each selected peptide was differently degraded throughout the gastro-intestinal tract by the digestive process. Pepsin, pancreatin and bile concentrations were optimized using a published experimental design (Granado-Lorencio et al (2007). J. Agri. Food. Chem., 55, 6387-6394).

For a further data set, the system named is soy glycinin. Description: Protease activity of LAB strains (supernatant and cells). It is filed as biochemical. The note with it: for Protease activity cell: cells; for Protease activity Supernatant: culture supernatant, proteases above 10 KDa concentrated. From the text: For the purpose of selecting the most efficient lactic acid bacteria having protease activity against glycinin, different strains of the genera Lactobacillus and Streptococcus were subject to the following hydrolysis assay.
The substrate selected to carry out the process of hydrolysis was soy glycinin. Glycinin is the soy major protein extracted from soy flour after treatment with mercaptoethanol followed by two centrifugation steps as described in Thanh V. H. et al. (Major proteins of soybean seeds: a straightforward fractionation and their characterization. 1976. J Agric Food Chem 24: 1117-1121). Among the enzymatic sources used to degrade glycinin, ten strains were tested: 6 strains from Streptococcus genera (strains 2, 3, 4, 5, 6, 7) and 4 strains from Lactobacillus genera (strains 8, 9, 10 and 11). All these strains were grown in optimal medium (MRS for Lactobacillus strains and BHI for Streptococcus strains) during 17 h at 37° C. and the proteases with a molecular weight above 10 KDa both in supernatant and cells were concentrated to be used as enzymatic sources in glycinin hydrolysis assays. On one hand, proteases from the supernatant were obtained after centrifugation for 15 min at 4000 rpm. Then the supernatant was ultrafiltrated by 10 KDa and the top was resuspended in 2 ml with 50 mM citrate phosphate buffer pH 7. On the other hand, cells obtained from the different cultures were washed with saline solution for 15 min at 4000 rpm and resuspended in 50 mM citrate phosphate buffer pH 7 to evaluate the protease activity in cells and supernatant (Table 1).

The mark [4] stands for this setting: Gastric phase 30 min., read-out: Degradation (%).
Where [5] appears, read: Gastric phase 120 min., read-out: Degradation (%).
Where [6] appears, read: Intestinal phase 30 min., read-out: Degradation (%).
[7] abbreviates: Intestinal phase 120 min., read-out: Degradation (%).

Like-named read-outs stand apart in the source and are kept apart here. Where no end group is shown, it is not given here.

Chain of PLA2 (pancreatic phospholipase A2) (P04054 23-148, species assumed): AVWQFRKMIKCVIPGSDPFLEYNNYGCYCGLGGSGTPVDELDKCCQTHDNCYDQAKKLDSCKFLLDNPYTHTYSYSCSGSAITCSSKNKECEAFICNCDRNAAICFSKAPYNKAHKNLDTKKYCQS

Turning to `CCCCCCCCCCC[C@@H](C[C@@H]1OC(=O)[C@H]1CCCCCC)OC(=O)[C@H](CC(C)C)NC=O` [Orlistat, reference compound], the “% Fluorescence Reduction” value in data set [1] turned out to be 29.5 ± 0.1%.
Consider “DEDEDEDEDKPRPSRP (DEDEDEDEDKPRPSRP; listed as Glycine soja) [Peptide P16e]”, for which the “% Fluorescence Reduction C. elegans” value in data set [1] amounted to 21.86 ± 4%.
The same measure, in the same setting: as for “DEDEDEDKPRPSRP (DEDEDEDKPRPSRP; listed as Glycine soja) [Peptide P14d]”, the figure is 6.26 ± 7.6%.
On to “EEDQPRPDHPPQRP [Peptide P14c, EEDQPRPDHPPQRP]”, for which the “Percentage of PLA2 inhibition” value in data set [2] (peptide 0.035 mg/ml) was determined as 20.4 ± 4.4%; in data set [2] (peptide 0.35 mg/ml) it was 21.1 ± 4.3%; in data set [2] (peptide 2 mg/ml), 25.2 ± 4.3%; in data set [2] (peptide 3.5 mg/ml), 26.1 ± 4.1%. Further, the “% Fluorescence Reduction” value in data set [1] is 33.7 ± 5.5%. Also, the “% Fluorescence Reduction C. elegans” value in data set [1] stood at 39.37 ± 7.08%. Also, the IC50 – broadly, the concentration needed to halve the response being measured – against PL (pancreatic lipase) was 28.9 µM. The metabolised at 0.5 h in data set [3] (setting [4]) was 4.2%; in data set [3] (setting [6]), 93.2%. Besides, the metabolised at 2 h in data set [3] (setting [5]) came to 4.6%; in data set [3] (setting [7]), 95.5%. For the same compound, the “degradation in the in vitro digestion model (in words)” value in data set [3] is listed as “completely degraded”. The metabolised at 0.25 h in data set [3] (read-out: Degradation (%)) came to 92.9%. The metabolised at 1 h in data set [3] (read-out: Degradation (%)) came to 95%. Besides, the metabolised at 5 min in data set [3] (Oral phase 5 min., read-out: Degradation (%)) is 5.3%.
In the case of EEEGGSVLSG [Peptide P10b, EEEGGSVLSG], the “Percentage of PLA2 inhibition” value worked out at 7.8 ± 5.6% in data set [2] (peptide 0.035 mg/ml), 13.9 ± 3.3% in data set [2] (peptide 0.35 mg/ml), 26.1 ± 5.9% in data set [2] (peptide 2 mg/ml) and 26.9 ± 2.5% in data set [2] (peptide 3.5 mg/ml). For the same compound, the “% Fluorescence Reduction C. elegans” value in data set [1] is 33.48 ± 6.1%. The compound also showed an IC50 against PL (pancreatic lipase) of 36.3 µM.
With “GKREQDEDEDEDEDKPRPSRP (GKREQDEDEDEDEDKPRPSRP; listed as Glycine soja) [Peptide P21b]”, the “% Fluorescence Reduction C. elegans” value in data set [1] was 24.91 ± 7.1%.
Same read-out and setting: in the case of “HQQEEENEGGSILSG (HQQEEENEGGSILSG; listed as Glycine soja) [Peptide P15a]” it was 22.82 ± 6.1%.
As for “Lactobacillus delbrueckii lactis CNCM I-4280 [Strain 8]”, in the data set with soy glycinin, the Protease activity cell is on record as 0.009 U.I./ml and the “Protease activity Supernatant” value is reported as 0.028 U.I./ml.
For “Lactobacillus helveticus CNCM I-4279 [Strain 9]” the same measures were 0.012 U.I./ml and 0.010 U.I./ml.
“Lactobacillus paracasei paracasei CNCM I-1518 [Strain 11]”: in the data set on soy glycinin, the Protease activity cell is listed as 0.006 U.I./ml and the “Protease activity Supernatant” value stood at 0.029 U.I./ml.
As to “Lactobacillus paracasei paracasei CNCM I-4270 [Strain 10]”, in the data set with soy glycinin, the Protease activity cell turned out to be 0.005 U.I./ml and the “Protease activity Supernatant” value is 0.016 U.I./ml.
As to “QDEDEDEDEDKPRPSRP (QDEDEDEDEDKPRPSRP; listed as Glycine soja) [Peptide P17c]”, in data set [1], the “% Fluorescence Reduction C. elegans” value turned out to be 18.13 ± 5.57%.
For “QGENEEEDSGAIVTVK [Peptide P16f, QGENEEEDSGAIVTVK]”, the “Percentage of PLA2 inhibition” value in data set [2] (peptide 0.035 mg/ml) was found to be 13.6 ± 3.8%; in data set [2] (peptide 0.35 mg/ml) it was 13.6 ± 0.4%; in data set [2] (peptide 2 mg/ml), 15.9 ± 6.0%; in data set [2] (peptide 3.5 mg/ml), 22.5 ± 3.7%. Moreover, the “% Fluorescence Reduction” value in data set [1] is on record as 33.9 ± 5.7%. The “% Fluorescence Reduction C. elegans” value in data set [1] turned out to be 38.95 ± 8.7%. The compound further showed an IC50 on PL (pancreatic lipase) of 262 µM. The metabolised at 0.5 h in data set [3] (setting [4]) worked out at 65.8%; in data set [3] (setting [6]), 100%. Also, the values for the metabolised at 2 h in data set [3] (setting [5]) and in data set [3] (setting [7]) were 95.2% and 100%, respectively. Further, the “degradation in the in vitro digestion model (in words)” value in data set [3] is listed as “completely degraded”. Further, the metabolised at 0.25 h in data set [3] (read-out: Degradation (%)) was found to be 100%. Also, in data set [3] (read-out: Degradation (%)), the metabolised at 1 h stood at 100%. In data set [3] (Oral phase 5 min.), the “Degradation (%)” value is reported as −1.2%.
Take “Streptococcus thermophilus CNCM I-1630 [Strain 7]”: in the data set with soy glycinin, the Protease activity cell stood at 0.001 U.I./ml and the “Protease activity Supernatant” value came to 0.003 U.I./ml.
The corresponding values for “Streptococcus thermophilus CNCM I-2776 [Strain 6]” are 0.001 U.I./ml and 0.006 U.I./ml.
The corresponding values for “Streptococcus thermophilus CNCM I-2785 [Strain 3]” are 0.001 U.I./ml and 0.009 U.I./ml.
The corresponding values for “Streptococcus thermophilus CNCM I-2965 [Strain 2]” are 0.003 U.I./ml and 0.005 U.I./ml.
Consider “Streptococcus thermophilus CNCM I-3211 [Strain 5]”, for which, in the data set on soy glycinin, the Protease activity cell is given as 0.001 U.I./ml and the “Protease activity Supernatant” value is listed as 0.003 U.I./ml.
The corresponding values for “Streptococcus thermophilus CNCM I-4269 [Strain 4]” are 0.002 U.I./ml and 0.001 U.I./ml.
